Entries after “also recorded” stand apart in the source; their conditions may differ. Read-outs that look alike come from different tables or passages of the source.
Experiments:
LPA1 = LPA1 (Homo sapiens, UniProt Q92633); experiment: Ca2+ transients in RH7777 cells expressing LPA1 (agonist / inhibition of LPA response); conditions: for LPA1 effect in words: Tables 2, 4, 6
Experimental: (§1) The biological effects of all synthesized compounds were testing using three high-throughput assays. First, intracellular calcium transients in rat hepatoma (RH777, an LPA receptor null cell) cell lines individually expressing either LPA1, LPA2, and LPA3 receptors were analyzed to evaluate compounds as agonists or antagonists.
(§2) Synthesized compounds were tested for induction and inhibition of LPA-induced calcium transients in rat hepatoma (RH7777) cell lines that stably express individual LPA1, LPA2, and LPA3 receptors as described in the literature using a FlexStation II automated fluorimeter (Molecular Devices, Sunnyvale, Calif.).
(§3) RH7777 cells, which lack LPA GPCR, were stably transfected with individual LPA1, LPA2 and LPA3 receptors and used for the in vitro screening.

LPA2 = LPA2 (Homo sapiens, UniProt Q9HBW0); experiment: Ca2+ transients in RH7777 cells expressing LPA2 (agonist / inhibition of LPA response); conditions: for Emax: RH7777, read-out: LPA2 (Emax)
LPA2, sequence (Q9HBW0 whole entry, species assumed): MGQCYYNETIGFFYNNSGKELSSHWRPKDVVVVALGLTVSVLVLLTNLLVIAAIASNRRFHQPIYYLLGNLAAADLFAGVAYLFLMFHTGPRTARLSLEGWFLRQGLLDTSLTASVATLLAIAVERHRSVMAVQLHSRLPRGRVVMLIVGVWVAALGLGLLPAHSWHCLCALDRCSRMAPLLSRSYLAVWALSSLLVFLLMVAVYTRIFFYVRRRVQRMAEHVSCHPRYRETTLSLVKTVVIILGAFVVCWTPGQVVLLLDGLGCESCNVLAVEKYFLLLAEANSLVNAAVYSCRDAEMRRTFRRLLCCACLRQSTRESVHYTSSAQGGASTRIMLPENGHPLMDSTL
Experimental: as §1, §2, §3

LPA3 = molecular target: T1, LPA3 (Homo sapiens, UniProt Q9UBY5); experiment: Ca2+ transients in RH7777 cells expressing LPA3 (agonist / inhibition of LPA response); conditions: for LPA3 effect in words: Tables 2, 4, 6; for Emax: RH7777, read-out: LPA3 (Emax)
T1 sequence (Q9UBY5 1-353): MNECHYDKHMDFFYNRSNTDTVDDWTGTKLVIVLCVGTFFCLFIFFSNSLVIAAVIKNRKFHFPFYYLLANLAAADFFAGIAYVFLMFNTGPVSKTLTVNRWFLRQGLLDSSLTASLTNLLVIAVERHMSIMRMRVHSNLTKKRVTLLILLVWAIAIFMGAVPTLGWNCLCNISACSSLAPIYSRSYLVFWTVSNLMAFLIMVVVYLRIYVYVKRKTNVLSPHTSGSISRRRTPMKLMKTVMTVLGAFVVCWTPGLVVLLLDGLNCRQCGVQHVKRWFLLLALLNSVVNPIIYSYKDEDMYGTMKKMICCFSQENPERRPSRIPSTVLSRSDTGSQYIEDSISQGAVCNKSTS
Experimental: as §1, §2, §3

[1] = read-out: LPA3 IC50, 200 nM LPA
[2] = read-out: LPA1 IC50, 200 nM LPA

LPA1, sequence (Q92633 whole entry, species assumed): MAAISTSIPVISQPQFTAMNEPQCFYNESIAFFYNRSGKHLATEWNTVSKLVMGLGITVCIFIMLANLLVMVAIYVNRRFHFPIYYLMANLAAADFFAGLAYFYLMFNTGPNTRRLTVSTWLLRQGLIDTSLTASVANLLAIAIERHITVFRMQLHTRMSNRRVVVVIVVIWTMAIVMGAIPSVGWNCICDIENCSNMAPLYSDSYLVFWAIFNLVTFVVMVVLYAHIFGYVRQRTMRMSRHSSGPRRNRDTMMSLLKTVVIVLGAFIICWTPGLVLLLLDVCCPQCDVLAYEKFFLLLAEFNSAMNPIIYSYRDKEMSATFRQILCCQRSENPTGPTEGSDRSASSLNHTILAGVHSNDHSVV

## CCCCCCCCCCCCCCC(F)(F)P(=O)(O)O
LPA1
  LPA1 effect in words: Weak inhibition
LPA2; LPA2 EC50, Table 4
  EC50: ~10000 nM
LPA2; Table 4
  LPA2 effect in words: Weak agonist
LPA3; [1]
  IC50: 1510 nM

## CCCCCCCCc1ccc(CCCCCCCOP(O)(O)=S)cc1
LPA1; LPA1 EC50
  EC50: 4830 nM
LPA1
  LPA1 effect in words: Partial agonist
LPA2; LPA2 EC50, Table 4
  EC50: 6060 nM
LPA2; Table 4
  LPA2 effect in words: full agonist
LPA3
  EC50: 858 nM
  LPA3 effect in words: Partial agonist

## CCCCCCCCc1ccc(CCCCCCCOP(=O)(O)O)cc1
LPA1
  EC50: 21500 nM
  LPA1 effect in words: Partial agonist
LPA2; Table 4
  LPA2 effect in words: Weak antagonist
LPA3
  IC50: 1760 nM

## CCCCCCCCCCCCC1OCC(COP(=O)(O)O)O1 (stereo not drawn) [Analog 4]
LPA1
  EC50: > 30000 nM
LPA1; LPA1 (nM) IC50, Table 1
  IC50: 1110 nM
LPA1; LPA1 IC50, text
  IC50: 1100 nM
LPA2; LPA2 EC50, text
  EC50: 1180 nM
LPA3
  EC50: > 30000 nM
  IC50: 2870 nM

## CCCCCCCC/C=C\CCCCCCCC1OCC(COP(=O)([O-])O)O1.[K+] (stereo not drawn) [Analog 5]
LPA2
  LPA2 agonist/antagonist activity in words: full LPA2 agonist
LPA2; LPA2 (nM) EC50, Table 1
  EC50: 68 nM
LPA3
  EC50: > 30000 nM
  IC50: 527 nM
  LPA3 agonist/antagonist activity in words: LPA1/3 antagonist

## CCCCCCCC/C=C\CCCCCCCC1OCC(COP([O-])(O)=S)O1.[K+] (stereo not drawn) [Analog 6]
LPA1
  IC50: > 30000 nM
  LPA1 agonist/antagonist activity in words: pan-agonists
LPA1; LPA1 (nM) EC50, Table 1
  EC50: 981 nM
LPA2
  LPA2 agonist/antagonist activity in words: pan-agonists
LPA2; LPA2 (nM) EC50, Table 1
  EC50: 34 nM
LPA3
  EC50: 639 nM
  IC50: > 30000 nM
  LPA3 agonist/antagonist activity in words: pan-agonists

## CCCCCCCCc1ccc(CCCCCCC2OCC(COP(=O)(O)O)O2)cc1 (stereo not drawn) [Analog 14]
LPA1
  IC50: 4660 nM
LPA1; LPA1 (nM) EC50, Table 1
  EC50: > 30000 nM
LPA2
  IC50: > 30000 nM
LPA2; LPA2 (nM) EC50, Table 1
  EC50: > 30000 nM
LPA3
  EC50: 692 nM
  IC50: > 30000 nM

## CCCCCCCCc1ccc(CCCCCCC2OCC(COP([O-])(O)=S)O2)cc1.[K+] (stereo not drawn) [Analog 15]
LPA1
  LPA1 agonist/antagonist activity in words: no effect
LPA1; LPA1 (nM) EC50, Table 1
  EC50: > 30000 nM
LPA2
  IC50: > 30000 nM
  LPA2 agonist/antagonist activity in words: no effect
LPA2; LPA2 (nM) EC50, Table 1
  EC50: > 30000 nM
LPA3
  EC50: > 30000 nM
  IC50: 504 nM
  LPA3 agonist/antagonist activity in words: sub-type selective LPA3 antagonist

## CCCCCCCC/C=C\CCCCCCC[C@@H]1OC[C@H](COP(=O)(O)O)O1 [Analog 21]
LPA2; LPA2 (nM) EC50, Table 1
  EC50: > 10000 nM
LPA2; LPA2 (nM) IC50, Table 1
  IC50: > 30000 nM
LPA3
  EC50: > 30000 nM
  IC50: 484 nM

## CCCCCCCC/C=C\CCCCCCC[C@@H]1OC[C@H](COP(O)(O)=S)O1 [Analog 22]
LPA2
  IC50: > 30000 nM
LPA2; LPA2 (nM) EC50, Table 1
  EC50: 1540 nM
LPA3
  EC50: 204 nM
  IC50: > 30000 nM

## CCCCCCCC/C=C\CCCCCCC[C@H]1OC[C@H](COP(=O)(O)O)O1 [Analog 23]
LPA2; LPA2 (nM) EC50, Table 1
  EC50: > 30000 nM
LPA2; LPA2 (nM) IC50, Table 1
  IC50: > 30000 nM

## CCCCCCCC/C=C\CCCCCCC[C@H]1OC[C@H](COP(O)(O)=S)O1 [Analog 24]
LPA2
  IC50: > 30000 nM
LPA2; LPA2 (nM) EC50, Table 1
  EC50: 1320 nM

## CCCCCCCC/C=C\CCCCCCC[C@H]1OC[C@@H](COP(=O)(O)O)O1 [Analog 25]
LPA2; LPA2 (nM) EC50, Table 1
  EC50: 1170 nM
LPA2; LPA2 (nM) IC50, Table 1
  IC50: > 30000 nM

## CCCCCCCC/C=C\CCCCCCC[C@@H]1OC[C@@H](COP(O)(O)=S)O1 [Analog 28]
LPA2
  IC50: > 30000 nM
LPA2; LPA2 (nM) EC50, Table 1
  EC50: 1710 nM

## CCCCCCCC(=O)OCC(COP(=O)(O)O)OC(=O)CCCCCCC (stereo not drawn) [Cpd 2, phosphatidic acid 8:0, reference compound]
LPA1
  Ki: 407 nM
LPA1; LPA1 IC50, Table 5
  IC50: 692 nM

## CCCCCCCC(=O)OC[C@@H](COP(=O)(O)O)OC(=O)CCCCCCC [Cpd 7a, (2S)-PA 8:0]
LPA1
  LPA1 agonist/antagonist activity in words: subtype selective antagonism
LPA1; read-out: LPA1 (Ki), Table 5
  Ki: 221 nM
LPA1; read-out: LPA1 IC50, Table 5
  IC50: 433 nM
LPA2
  LPA2 agonist/antagonist activity in words: no effect
LPA3
  LPA3 agonist/antagonist activity in words: subtype selective antagonism

## CCCCCCCC(=O)OC[C@@H](COP(O)(O)=S)OC(=O)CCCCCCC [Cpd 8a, thiophosphatidic acid 8:0]
LPA1
  LPA1 agonist/antagonist activity in words: lacked LPA1/3 antagonism
LPA2
  LPA2 agonist/antagonist activity in words: partial agonist
  Emax: 17%
LPA2; read-out: LPA2 EC50, Table 5
  EC50: 7170 nM
LPA3
  LPA3 agonist/antagonist activity in words: partial agonist
  Emax: 30%
LPA3; read-out: LPA3 EC50, Table 5
  EC50: 115 nM

## CCCCCCCC(=O)OC[C@H](COP(O)(O)=S)OC(=O)CCCCCCC [Cpd 8b, (2R)-TPA 8:0]
LPA1
  LPA1 agonist/antagonist activity in words: more potent antagonist
LPA1; read-out: LPA1 (Ki), Table 5
  Ki: 360 nM
LPA1; read-out: LPA1 IC50, Table 5
  IC50: 686 nM
LPA2
  LPA2 agonist/antagonist activity in words: partial agonist
  Emax: 58%
LPA2; read-out: LPA2 EC50, Table 5
  EC50: 6330 nM
LPA3
  selectivity for LPA3 over LPA1: 75 fold
LPA3; read-out: LPA3 IC50, Table 5
  IC50: 11 nM
LPA3; read-out: LPA3 Ki
  Ki: 5 nM

## CCCCCCCCOC[C@@H](COP(=O)(O)O)OCCCCCCCC [Cpd 12a]
LPA1; read-out: LPA1 (Ki), Table 5
  Ki: 486 nM
LPA1; [2]
  IC50: 1580 nM
LPA1; read-out: LPA1 IC50, Table 5
  IC50: 1580 nM
LPA2; *transient
  LPA2 effect in words: Weak inhibition(?) *transient
LPA3; read-out: LPA3 (Ki), Table 5
  Ki: 50 nM
LPA3; [1]
  IC50: 143 nM
LPA3; read-out: LPA3 IC50, Table 5
  IC50: 143 nM

## CCCCCCCCOC[C@H](COP(=O)(O)O)OCCCCCCCC [Cpd 12b, (2R)-APA 8:0]
LPA1
  LPA1 agonist/antagonist activity in words: agonists; also recorded: Enantiospecific activation
  LPA1 effect in words: Partial agonist
LPA1; RH7777, read-out: LPA1 (Emax)
  Emax: 57%
LPA1; read-out: LPA1 EC50
  EC50: 3260 nM
LPA1; read-out: LPA1 EC50, Table 5, PA 8:0 analogs
  EC50: 3260 nM
LPA2; *transient
  LPA2 effect in words: Partial agonist
LPA2; LPA2 EC50, *transient
  EC50: 2530 nM
LPA3
  LPA3 agonist/antagonist activity in words: agonists; also recorded: Enantiospecific activation
  Emax: 109%
  LPA3 effect in words: Full agonist
LPA3; read-out: LPA3 EC50
  EC50: 164 nM
LPA3; read-out: LPA3 EC50, Table 5
  EC50: 164 nM

## CCCCCCCCOC[C@@H](COP(O)(O)=S)OCCCCCCCC [Cpd 13a, dialkyl thiophosphatidic acid 8:0]
LPA1; read-out: LPA1 (Ki), Table 5
  Ki: 139 nM
LPA1; [2]
  IC50: 328 nM
LPA1; read-out: LPA1 IC50, Table 5
  IC50: 328 nM
LPA2; *transient
  LPA2 effect in words: Weak stimulation *transient
LPA3; read-out: LPA3 (Ki), Table 5
  Ki: 67 nM
LPA3; [1]
  IC50: 184 nM
LPA3; read-out: LPA3 IC50, Table 5
  IC50: 184 nM

## CCCCCCCCNC(=O)[C@H](COP(O)(O)=S)NC(=O)CCCCCCC [Cpd 20a]
LPA1; read-out: LPA1 (Ki), Table 5
  Ki: 152 nM
LPA1; read-out: LPA1 IC50, Table 5
  IC50: 476 nM
LPA3; read-out: LPA3 (Ki), Table 5
  Ki: 117 nM
LPA3; read-out: LPA3 IC50, Table 5
  IC50: 251 nM

## CCCCCCCCNC(=O)[C@@H](COP(O)(O)=S)NC(=O)CCCCCCC [Cpd 20b]
LPA1; read-out: LPA1 (Ki), Table 5
  Ki: 2850 nM
LPA1; read-out: LPA1 IC50, Table 5
  IC50: 7390 nM
LPA3; read-out: LPA3 (Ki), Table 5
  Ki: 118 nM
LPA3; read-out: LPA3 IC50, Table 5
  IC50: 302 nM

## CCCCCCCCc1ccc(CCCCCCC2OCC(COP(=O)(O)O)O2)cc1 (stereo not drawn) [ID 14]
LPA1; [2]
  IC50: 4660 nM
LPA3
  LPA3 effect in words: Partial agonist

## CCCCCCCCc1ccc(CCCCCCC2OCC(COP(O)(O)=S)O2)cc1 (stereo not drawn) [ID 15]
LPA1
  LPA1 effect in words: Weak antagonist
